Data taken from ChEMBL document CHEMBL1914349, “Porpoisamides A and B, two novel epimeric cyclic depsipeptides from a Florida Keys collection of Lyngbya sp” (Bioorg Med Chem, 2011).

How the values were obtained:
U2OS = experiment: Antiproliferative activity against human U2OS cells after 48 hrs by MTT assay; format: functional, cell-based
HCT-116 = experiment: Antiproliferative activity against human HCT116 cells after 48 hrs by MTT assay; format: functional, cell-based; details: HCT-116, 48 h

SMILES | IC50 (U2OS) | IC50 (HCT-116)
CCCCC[C@H]1NC(=O)[C@H](C)NC(=O)[C@@H](Cc2ccccc2)N(C)C(=O)[C@@H]2CCCN2C(=O)[C@H]([C@@H](C)CC)OC(=O)[C@@H]1C [PORPOISAMIDE B] | 22 µM | 21 µM
CCCCC[C@H]1NC(=O)[C@H](C)NC(=O)[C@@H](Cc2ccccc2)N(C)C(=O)[C@@H]2CCCN2C(=O)[C@H]([C@@H](C)CC)OC(=O)[C@H]1C [PORPOISAMIDE A] | 28 µM | 25 µM
